This note sets out measurements from PubChem BioAssay (NCI).

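Briefly, cells in 96-well plates were exposed to five compound concentrations for 48 h, and endpoints were estimated by linear interpolation. Definition used: TGI = concentration required for complete inhibition of growth.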

Some test systems named below: 786-0 renal; BT-549 breast; CAKI-1 renal; COLO 205 colon; HCT-116 colon; HS 578T breast; IGROV1 ovarian; MDA-N; NCI-H226 lung; NCI-H522 lung; OVCAR-8 ovarian; RXF 393 renal; SF-295 CNS; SF-539 CNS; SK-OV-3 ovarian; SR leukemia; T-47D breast; HCC-2998 colon; HOP-92 NSCLC.
What all share (experiment): NCI-60 cell line screen, 48 h

Turning to `O=C1CC(n2ccnc2)c2c(Cl)sc(Cl)c21` (stereo unspecified), the TGI in the assay on 786-0 renal is greater than 37.9 µM; in the assay with BT-549 breast it was 32.8 µM; in the assay with CAKI-1 renal, 36.1 µM; with COLO 205 colon it was 33.8 µM; in the assay with HCT-116 colon, 29.5 µM; with HS 578T breast, greater than 78.8 µM. For the same compound, the TGI in the assay on IGROV1 ovarian was 26.6 µM; in the assay with MDA-N, 50.4 µM; with NCI-H226 lung, 77.1 µM; in the assay with NCI-H522 lung, 17.1 µM; in the assay with OVCAR-8 ovarian it was 27.8 µM; in the assay on RXF 393 renal, 33.9 µM. Further, the TGI was greater than 78.1 µM in the assay on SF-295 CNS; 35.4 µM in the assay on SF-539 CNS; greater than 79.5 µM in the assay on SK-OV-3 ovarian; greater than 19.8 µM with SR leukemia; 53.2 µM in the assay with T-47D breast.
Regarding `O=[N+]([O-])C(C(Cl)=C(Cl)Cl)=C(N1CCCCC1)N1CCCCC1`, the TGI in the assay on 786-0 renal, in the assay with BT-549 breast, with CAKI-1 renal, in the assay on COLO 205 colon, in the assay on HCC-2998 colon and with HCT-116 colon was greater than 100 µM each time. The TGI in the assay on HS 578T breast is 70.8 µM; in the assay with IGROV1 ovarian it was greater than 100 µM; in the assay on MDA-N, greater than 100 µM; with NCI-H226 lung, greater than 100 µM; in the assay on OVCAR-8 ovarian, greater than 100 µM; in the assay on RXF 393 renal, greater than 100 µM. Moreover, the TGI in the assay with SF-295 CNS, in the assay with SF-539 CNS, with SK-OV-3 ovarian, in the assay with SR leukemia and in the assay with T-47D breast was greater than 100 µM each time.
For `N#CCCC1(CCC#N)S(=O)(=O)OCCOS1(=O)=O`, the TGI in the assay with 786-0 renal was greater than 100 µM; with BT-549 breast it was greater than 100 µM; in the assay with CAKI-1 renal, greater than 100 µM; in the assay on COLO 205 colon it was greater than 100 µM; in the assay on HCT-116 colon, greater than 100 µM; in the assay with HS 578T breast it was 78.4 µM. Moreover, the TGI with MDA-N, in the assay with NCI-H226 lung, in the assay on NCI-H522 lung, in the assay with OVCAR-8 ovarian, with RXF 393 renal and in the assay with SF-295 CNS was greater than 100 µM each time. Also, the TGI is 31.1 µM in the assay with SF-539 CNS, greater than 100 µM in the assay on SK-OV-3 ovarian, greater than 100 µM in the assay on SR leukemia and greater than 100 µM in the assay with T-47D breast.
On to `Cc1cn(CC(=S)NCCc2c[nH]c3ccccc23)c(=O)[nH]c1=O`, for which the TGI with 786-0 renal, in the assay with BT-549 breast, with COLO 205 colon, with HCT-116 colon, in the assay with HOP-92 NSCLC and in the assay with HS 578T breast was greater than 100 µM throughout. Moreover, the TGI with IGROV1 ovarian, in the assay with MDA-N, in the assay with NCI-H226 lung, with RXF 393 renal, with SF-539 CNS and in the assay with SK-OV-3 ovarian was greater than 100 µM throughout. For the same compound, the TGI in the assay on SR leukemia and in the assay on T-47D breast was greater than 100 µM throughout.
Turning to `CC(C)N(C(C)C)S(=O)(=O)CC12CCC(C/C1=N\O)C2` (stereo unspecified), the TGI in the assay with 786-0 renal, with BT-549 breast, with CAKI-1 renal, in the assay on COLO 205 colon, in the assay with HCC-2998 colon and in the assay with HCT-116 colon was greater than 100 µM throughout. Also, the TGI in the assay on HS 578T breast, in the assay with IGROV1 ovarian, with MDA-N, in the assay on NCI-H226 lung, with NCI-H522 lung and in the assay on OVCAR-8 ovarian was greater than 100 µM throughout. The TGI in the assay with RXF 393 renal, in the assay on SF-295 CNS, with SF-539 CNS, with SK-OV-3 ovarian, in the assay on SR leukemia and with T-47D breast was greater than 100 µM throughout.
As to `CCC1(c2ccc(OC)c(OC)c2)CCN(S(=O)(=O)c2ccc(C)cc2)C1` (stereo unspecified), the TGI in the assay on 786-0 renal, with BT-549 breast, in the assay with CAKI-1 renal, with COLO 205 colon, with HCC-2998 colon and in the assay with HCT-116 colon was greater than 100 µM throughout. In addition, the TGI in the assay with IGROV1 ovarian, in the assay on MDA-N, in the assay with NCI-H226 lung, with NCI-H522 lung, in the assay on RXF 393 renal and with SF-295 CNS was greater than 100 µM each time. For the same compound, the TGI with SF-539 CNS is greater than 100 µM; in the assay on SK-OV-3 ovarian it was greater than 100 µM; in the assay with SR leukemia, greater than 10 µM; in the assay with T-47D breast, greater than 100 µM.
Regarding `COC1(OC)CCN(Cc2ccccc2)C1=O`, the TGI came out at 15.7 µM in the assay on 786-0 renal; 31 µM in the assay with BT-549 breast; 13 µM in the assay on CAKI-1 renal; 12.5 µM in the assay with COLO 205 colon; 34 µM with HCC-2998 colon; 13.9 µM with HCT-116 colon. In addition, the TGI was 23.4 µM in the assay with HOP-92 NSCLC; greater than 100 µM in the assay on HS 578T breast; 26.8 µM with IGROV1 ovarian; 22.6 µM with MDA-N; 38.9 µM in the assay with NCI-H226 lung; greater than 100 µM in the assay on NCI-H522 lung. Besides, the TGI with OVCAR-8 ovarian was 17.9 µM; in the assay with RXF 393 renal it was 26.4 µM; with SF-295 CNS, 53.9 µM; with SF-539 CNS, 28.6 µM; with SK-OV-3 ovarian, greater than 100 µM; with T-47D breast, 18.8 µM.
Take `NC(=O)C1=C(O)[C@@]2(O)C(=O)C3=C(O)c4c(O)cccc4CC3C[C@H]2CC1=O` (stereo partly specified): the TGI in the assay on 786-0 renal was 17.6 µM; in the assay with BT-549 breast, 9.46 µM; in the assay on CAKI-1 renal, 26.7 µM; in the assay on COLO 205 colon it was 3.17 µM; in the assay with HCC-2998 colon it was 16.1 µM; with HCT-116 colon, 12 µM. Further, the TGI came out at 6.05 µM with HOP-92 NSCLC; 13.7 µM in the assay on HS 578T breast; 12.5 µM in the assay with IGROV1 ovarian; 41.2 µM in the assay on MDA-N; 8.43 µM in the assay with NCI-H226 lung; 7.72 µM in the assay on NCI-H522 lung. In addition, the TGI in the assay on OVCAR-8 ovarian is 17.3 µM; in the assay with RXF 393 renal, 9.58 µM; in the assay with SF-295 CNS it was 13.5 µM; with SF-539 CNS, 13.4 µM; with SK-OV-3 ovarian it was greater than 28.7 µM; with T-47D breast it was 23.8 µM.
Take `COc1ccc2nc3c4c(nccc4c2c1)-c1ncccc1C3=O`: the TGI in the assay on 786-0 renal was 0.208 µM; in the assay with BT-549 breast, 0.528 µM; in the assay on CAKI-1 renal it was 1.83 µM; in the assay with COLO 205 colon, 1.28 µM; in the assay with HCC-2998 colon, 0.805 µM; in the assay with HCT-116 colon, 0.467 µM. Moreover, the TGI with HOP-92 NSCLC was 12.3 µM; in the assay with IGROV1 ovarian, 0.279 µM; in the assay on MDA-N it was 0.128 µM; in the assay on NCI-H226 lung, 0.445 µM; in the assay on OVCAR-8 ovarian it was 6.55 µM; in the assay with RXF 393 renal, 1.02 µM. The TGI worked out at 0.278 µM in the assay on SF-295 CNS; 0.56 µM in the assay on SF-539 CNS; 0.386 µM in the assay on SK-OV-3 ovarian; 0.0189 µM with SR leukemia; 4.81 µM with T-47D breast.
